No end group written: not given here.
How the values were obtained:
CD4 and CD8 T cells = settings: cited from earlier work
From the text: Expectedly, sections from control groups were negative for all the markers tested except rare CD11b^+ cells.

[1] = system: serum antibodies (Igs and isotypes) of immunized mice; assay: ELISA, antibodies that react with β1ARAc peptides; format: in vivo, A/J mice; settings: serum 1:100, day 21, OD 405 nm; for Antibody response, total Igs (in words): five animals per group
Procedure: ELISA was used to measure antibodies that react with β1ARAc peptides in the serum samples collected from immunized animals at termination on day 21 as described previously ([26]). […] After washing/blocking, serum samples (1:100) were added in duplicates, and the plates were incubated at 37°C for 1 h followed by addition of HRP-labeled goat anti-mouse immunoglobulins (Igs), IgG1, IgG2a, IgG2b, IgG3, IgM, IgA, and IgE (Southern Biotech, Birmingham, AL, USA) as secondary antibodies. Two hours after incubation at RT, 1 × tetramethylbenzidine solution was added as a substrate (eBioscience), and reactions were stopped using 1 M phosphoric acid. The plates were read at 405 nm using an automated ELISA reader (BioTek instruments, Winooski, VT, USA) to measure OD values ([26], [46]).

CD4 T cells = assay: IA^k dextramer staining of CD4 T cells; format: cell-based, A/J mice; settings: IA^k dextramers
From the text: To enumerate the frequencies of antigen-specific CD4 T cells, we created IA^k dextramers for β1AR 171-190 and β1AR 211–230, and IE^k dextramers for β1AR 181–200. To create IA^k dextramers, the nucleotide sequence for β1AR 171–190 ([…]) and β1AR 211–230 ([…]) was inserted into the IA^k-β construct that we had described previously ([35], [39]), whereas IA^k/RNase 43–56 (control) dextramers were readily available in our laboratory ([30], [35], [40]). The soluble, IA^k/β1AR 171–190 and IA^k/β1AR 211–230 molecules were expressed in sf9 cells using baculovirus expression system. After purifying through anti-IA^k-affinity column, the IA^k/β1AR 171–190 and IA^k/β1AR 211–230 monomers were biotinylated and dextramers were derived using streptavidin (SA)/fluorophore-conjugated dextran molecules as described previously ([35], [39]). […]
To stain with dextramers, lymphocytes obtained from lymph nodes and spleens from immunized animals were stimulated with the immunizing peptides namely, β1ARAc 171–190, β1ARAc 181–200, and β1ARAc 211–230 (20 µg/ml) for 2 days and growth medium containing interleukin (IL)-2 (IL-2 medium) was then added. […] After washing, and acquisition by flow cytometry, percent dextramer^+ (dext^+) cells were analyzed within the live cells (7-AAD^−) using Flow Jo software ([34], [35], [39]).

[2] = system: T cells (lymph node cells/splenocytes from immunized animals); assay: T cell proliferation assay ([3H]-thymidine); format: cell-based, A/J mice; settings: for T cell responses: fold vs medium control; for T cell responses (in words): proliferation, 0–100 µg/ml, 2 days + 16 h [3H]-thymidine, cpm
Procedure: At termination, lymph nodes (maxillary, mandibular, axillary, inguinal, and popliteal) and spleens were harvested from immunized animals to prepare single cell suspensions. Similarly, splenocytes were prepared from naive animals. After lysing the erythrocytes and washing, cell pellets were suspended in RPMI medium containing 10% fetal bovine serum, 1 mM sodium pyruvate, 4 mM L-glutamine, 1 × each of non-essential amino acids and vitamin mixture, and 100 U/ml penicillin–streptomycin (Lonza, Walkersville, MD, USA; hereafter called growth medium). In some experiments, CD4 T cells and CD8 T cells were enriched to a purity of ~95% by negative selection based on magnetic separation using IMAG (BD Biosciences, San Jose, CA, USA) ([31]). To stimulate CD4 and CD8 T cells, syngeneic naive irradiated splenocytes loaded with peptides were used as antigen-presenting cells at a ratio of 1:1. Cells were stimulated at a density of ~5 × 10^6 cells/ml in triplicates with or without the immunizing peptides (0–100 µg/ml) in growth medium. RNase 43–56 or HEL 46–61 were used as irrelevant controls. After 2 days, cells were pulsed with tritiated ^3[H]-thymidine (1 μCi/well; MP Biomedicals, Santa Ana, CA, USA), and 16 h later, proliferative responses were measured as counts per minute (cpm) using a Wallac liquid scintillation counter (Perkin Elmer, Waltham, MA, USA) ([26], [28], [30]).

A/J mice (hearts) = assay: Induction of myocarditis by active immunization with peptides (histology); format: in vivo
IA^k = molecular target: T1, IA^k (Mus musculus, UniProt P01910+P06343); assay: MHC class II-binding assay, IA^k; design: species or system A/J mice; settings: soluble IA^k monomers, reference HEL 46–61; Figure S1B
T1 construct: soluble IA^k and IE^k monomers were expressed; class II-associated invariant-chain peptide (CLIP) 88–102 (VSQMRMATPLLMRPM) with thrombin cleavage site (cleaved yes); made in house; host or cells: baculovirus expression (sf9 cells are named only for the IA^k dextramer constructs)
T1 sequence (P01910 24-218 limits assumed): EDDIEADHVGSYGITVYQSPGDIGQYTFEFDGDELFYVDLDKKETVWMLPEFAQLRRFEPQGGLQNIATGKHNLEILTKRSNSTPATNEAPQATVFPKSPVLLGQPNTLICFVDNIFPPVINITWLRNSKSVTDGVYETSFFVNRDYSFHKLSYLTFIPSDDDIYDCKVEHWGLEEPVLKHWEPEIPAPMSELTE
T1 sequence (P06343 28-224 limits assumed): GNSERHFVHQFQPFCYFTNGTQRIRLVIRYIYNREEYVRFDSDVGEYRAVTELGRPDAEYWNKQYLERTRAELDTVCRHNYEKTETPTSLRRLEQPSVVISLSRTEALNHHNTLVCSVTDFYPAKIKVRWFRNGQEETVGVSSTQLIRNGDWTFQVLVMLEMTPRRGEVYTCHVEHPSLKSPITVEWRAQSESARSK
Procedure: A/J mice express two MHC class II alleles, IA^k and IE^k ([33], [34]), and to determine the affinities of β1AR peptides, soluble IA^k and IE^k monomers were expressed ([34], [35]). In brief, the β-chain in each of IA^k and IE^k constructs contain sequence for class II-associated invariant-chain peptide 88–102 (VSQMRMATPLLMRPM) linked with thrombin cleavage site ([34], [35]). After expressing in the baculovirus, soluble IA^k and IE^k monomers were treated with thrombin (20 U/mg; Novagen, Madison, WI, USA) to release class II-associated invariant-chain peptide leading us to obtain empty IA^k and IE^k molecules. Reaction mixtures were prepared to include empty IA^k or IE^k monomers (0.35 µg), competitor peptides (β1ARAc 171–190, β1ARAc 181–200, β1ARAc 201–220, and β1ARAc 211–230) (0.00001–100 µM), and constant amounts of the biotinylated reference peptides HEL 46–61 (for IA^k) or MCC 82–103 (for IE^k) (1 µM) in a buffer containing 50 mM sodium phosphate pH 7.0, 100 mM sodium chloride, 1 mM EDTA, and 1 × protease inhibitor (Sigma-Aldrich, St. Louis, MO, USA) ([36]–[38]). After incubating overnight at RT, the mixtures were transferred to 96-well white fluorescence plates coated with anti-IA^k (clone 10-2.16, BioXcell, West Lebanon, NH, USA), and anti-IE^k (clone M5/114, BioXcell) Abs (10 µg/ml) in 0.2 M sodium phosphate buffer, pH 6.8, blocked with 2% bovine casein; and the plates were incubated on a rocker at RT for 1 h. Finally, after adding 100 µl of europium-labeled streptavidin (0.1 µg/ml) and dissociation-enhanced lanthanide fluoroimmunoassay (DELFIA) enhancement solution (Perkin Elmer) sequentially, fluorescence intensities were measured at excitation/emission wavelengths of 340/615 nm using a Victor Multilabel Plate Reader (Perkin Elmer). The IC50 values were determined based on the concentrations of competitor peptides needed to prevent 50% binding of the reference peptides as we have described previously ([26], [28], [30]).

[3] = acetylated peptides in CFA/PT (100 µg individually, 50 µg each when pooled), days 0 and 7, day 21

Substance: myelin oligodendrocyte glycoprotein 35–55: CD4 and CD8 common epitope (MEVGWYRSPFSRVVHLYRNGK; UniProt Q61885 63-83, looked up, fragment)
- Common epitope for CD4 and CD8 T cells (in words) (CD4 and CD8 T cells): common epitopes for both CD4 and CD8 T cells

Substance: VNTFVHESLADVQA [RNase 43–56, bovine ribonuclease 43–56, irrelevant control, reference compound]
- Antibody response, total Igs (in words) [1]: lacking
- percent dext^+ CD4^high T cells (CD4 T cells; cells from β1ARAc 171–190-immunized mice, P = 0.049 vs control dextramer, Figure 4A): 0.52 ± 0.08%
- percent dext^+ CD4^high T cells (CD4 T cells; cells from β1ARAc 211–230-immunized mice, P = 0.0003 vs control dextramer, Figure 4C): 0.12 ± 0.01%
- T cell responses ([2]; 10 μg/ml, animals immunized with pool I): 1.05 fold
- T cell responses ([2]; 10 μg/ml, animals immunized with pool II): 1.06 fold
- T cell responses ([2]; 10 μg/ml, animals immunized with pool III): 1.04 fold
- T cell responses ([2]; 10 μg/ml, animals immunized with pool IV): 1.06 fold
- T cell responses ([2]; 10 μg/ml, animals immunized with pool IX): 0.80 fold
- T cell responses ([2]; 10 μg/ml, animals immunized with pool V): 1.06 fold
- T cell responses ([2]; 10 μg/ml, animals immunized with pool VI): 0.73 fold
- T cell responses ([2]; 10 μg/ml, animals immunized with pool VII): 1.16 fold
- T cell responses ([2]; 10 μg/ml, animals immunized with pool VIII): 0.91 fold
- T cell responses ([2]; 100 μg/ml, animals immunized with pool I): 1.42 fold
- T cell responses ([2]; 100 μg/ml, animals immunized with pool II): 1.20 fold
- T cell responses ([2]; 100 μg/ml, animals immunized with pool III): 1.14 fold
- T cell responses ([2]; 100 μg/ml, animals immunized with pool IV): 1.15 fold
- T cell responses ([2]; 100 μg/ml, animals immunized with pool IX): 0.83 fold
- T cell responses ([2]; 100 μg/ml, animals immunized with pool V): 1.14 fold
- T cell responses ([2]; 100 μg/ml, animals immunized with pool VI): 1.10 fold
- T cell responses ([2]; 100 μg/ml, animals immunized with pool VII): 1.16 fold
- T cell responses ([2]; 100 μg/ml, animals immunized with pool VIII): 0.81 fold
- T cell responses (in words) [2]: lacking

Substance: interphotoreceptor retinoid-binding protein 1–20: CD4 and CD8 common epitope (GPTHLFQPSLVLDMAKVLLD; UniProt P10745 18-37, looked up, fragment)
- Common epitope for CD4 and CD8 T cells (in words) (CD4 and CD8 T cells): common epitopes for both CD4 and CD8 T cells

Substance: Myhc 334–352: cardiac myosin heavy chain-α 334–352 (DSAFDVLSFTAEEKAGVYK; UniProt Q02566 334-352, looked up, fragment)
- Common epitope for CD4 and CD8 T cells (in words) (CD4 and CD8 T cells): common epitopes for both CD4 and CD8 T cells

Substance: β1ARAc 191–210: N-terminal acetylated mouse β1-adrenergic receptor peptide 191–210 (Ac-FLPILMHWWRAESDEARRCY; UniProt P34971 191-210, looked up, fragment)
- Myocarditis incidence (A/J mice (hearts); [3]): 0%
- Myocarditis incidence (animals with disease/total) (A/J mice (hearts); [3]): 0/5
- Inflammatory foci (A/J mice (hearts); acetylated peptides in CFA/PT, mean ± SEM of myocarditic animals, day 21): 0
- Antibody response, total Igs (in words) [1]: to some degree
- T cell responses (in words) [2]: non-T cell activators

Substance: β1ARAc 201–220: N-terminal acetylated mouse β1-adrenergic receptor peptide 201–220 (Ac-AESDEARRCYNDPKCCDFVT; cysteine pairing not given here; UniProt P34971 201-220, looked up, fragment)
- Myocarditis induction (in words) (A/J mice (hearts); acetylated peptide, standard CFA/PT protocol): failed to induce myocarditis
- IA^k binding (in words) (IA^k): failed to bind IA^k molecule
- Antibody isotypes produced, IgG and IgM (in words) [1]: all IgG isotypes (IgG1, IgG2a, IgG2b, IgG3) including IgM
- Antibody response, total Igs (in words) [1]: antibody response
- T cell responses (in words) [2]: non-T cell activators

Reference: paper PMC5701947, “β1-Adrenergic Receptor Contains Multiple IA^k and IE^k Binding Epitopes That Induce T Cell Responses with Varying Degrees of Autoimmune Myocarditis in A/J Mice” (Frontiers in Immunology, 2017)
